Data published in ChEMBL document CHEMBL4699664, “Rational Design of 2-Chloroadenine Derivatives as Highly Selective Phosphodiesterase 8A Inhibitors” (J Med Chem, 2020).
≈ marks a conversion by molar mass, not a printed value. Calls of active or inactive are those of the source. The calls are words filed in the database; no cut-off is given here.

Experiments:
Mus musculus [1] = experiment: Anti-VaD activity against UCCAO-induced spatial memory deficient C57BL/6J mouse model assessed as improvement in spatial learning and memory by measuring increased the frequency of platform site crossing at 1 mg/kg, po administered for 21 days by Morris water maze test; type: functional, organism-based; conditions: time 21.0 day
Mus musculus [2] = experiment: Anti-VaD activity against UCCAO-induced spatial memory deficient C57BL/6J mouse model assessed as improvement in spatial learning and memory by measuring increased the residence time in the platform area at 1 mg/kg, po administered for 21 days by Morris water maze test; type: functional, organism-based; conditions: time 21.0 day
Mus musculus [3] = experiment: Anti-VaD activity against UCCAO-induced spatial memory deficient C57BL/6J mouse model assessed as improvement in spatial learning and memory by measuring increase in latency time at 1 mg/kg, po administered for 21 days by passive avoidance test; type: functional, organism-based; conditions: time 21.0 day
Mus musculus [4] = experiment: Anti-VaD activity against UCCAO-induced spatial memory deficient C57BL/6J mouse model assessed as improvement in spatial learning and memory by measuring reduction in escape latency at 1 mg/kg, po administered for 21 days by Morris water maze test; type: functional, organism-based; conditions: time 21.0 day
Mus musculus [5] = experiment: Anti-VaD activity against UCCAO-induced spatial memory deficient C57BL/6J mouse model assessed as improvement in spatial learning and memory by measuring decrease in error rate at 1 mg/kg, po administered for 21 days by passive avoidance test; type: functional, organism-based; conditions: time 21.0 day
Mus musculus [6] = experiment: Anti-VaD activity against UCCAO-induced spatial memory deficient C57BL/6J mouse model assessed as improvement in spatial learning and memory by measuring increase in latency time at 3 mg/kg, po administered for 21 days by passive avoidance test; type: functional, organism-based; conditions: time 21.0 day
Cytochrome P450 1A2 = molecular target: T1, Cytochrome P450 1A2 (Homo sapiens, UniProt P05177); experiment: Inhibition of CYP1A2 in human liver microsomes in presence of NADPH; type: ADME
T1 sequence (P05177 whole entry): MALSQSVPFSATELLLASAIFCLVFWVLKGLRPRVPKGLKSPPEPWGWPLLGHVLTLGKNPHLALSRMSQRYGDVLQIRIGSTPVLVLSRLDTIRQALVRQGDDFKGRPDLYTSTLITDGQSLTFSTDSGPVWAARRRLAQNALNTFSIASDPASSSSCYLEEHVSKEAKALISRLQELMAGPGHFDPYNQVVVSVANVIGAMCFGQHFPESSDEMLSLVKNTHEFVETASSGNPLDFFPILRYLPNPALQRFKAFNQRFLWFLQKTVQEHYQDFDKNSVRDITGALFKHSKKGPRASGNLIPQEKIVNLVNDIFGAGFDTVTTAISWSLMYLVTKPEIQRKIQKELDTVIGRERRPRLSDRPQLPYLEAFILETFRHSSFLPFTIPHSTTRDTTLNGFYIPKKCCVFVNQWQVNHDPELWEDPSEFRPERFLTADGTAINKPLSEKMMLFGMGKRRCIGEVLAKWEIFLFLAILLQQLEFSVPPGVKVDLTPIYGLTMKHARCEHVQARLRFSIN

[7] = MRT (0 to t) in Sprague-Dawley rat at 2.5 mg/kg, iv measured upto 24 hrs by LC-MS/MS analysis; type: ADME, organism-based; conditions: in vivo
[8] = molecular target: Voltage-gated inwardly rectifying potassium channel KCNH2 (Homo sapiens, UniProt Q12809); experiment: Inhibition of human ERG expressed in CHO cells by patch clamp method; type: cell-based
Chain of Voltage-gated inwardly rectifying potassium channel KCNH2 (Q12809 whole entry, the tested form may be a part): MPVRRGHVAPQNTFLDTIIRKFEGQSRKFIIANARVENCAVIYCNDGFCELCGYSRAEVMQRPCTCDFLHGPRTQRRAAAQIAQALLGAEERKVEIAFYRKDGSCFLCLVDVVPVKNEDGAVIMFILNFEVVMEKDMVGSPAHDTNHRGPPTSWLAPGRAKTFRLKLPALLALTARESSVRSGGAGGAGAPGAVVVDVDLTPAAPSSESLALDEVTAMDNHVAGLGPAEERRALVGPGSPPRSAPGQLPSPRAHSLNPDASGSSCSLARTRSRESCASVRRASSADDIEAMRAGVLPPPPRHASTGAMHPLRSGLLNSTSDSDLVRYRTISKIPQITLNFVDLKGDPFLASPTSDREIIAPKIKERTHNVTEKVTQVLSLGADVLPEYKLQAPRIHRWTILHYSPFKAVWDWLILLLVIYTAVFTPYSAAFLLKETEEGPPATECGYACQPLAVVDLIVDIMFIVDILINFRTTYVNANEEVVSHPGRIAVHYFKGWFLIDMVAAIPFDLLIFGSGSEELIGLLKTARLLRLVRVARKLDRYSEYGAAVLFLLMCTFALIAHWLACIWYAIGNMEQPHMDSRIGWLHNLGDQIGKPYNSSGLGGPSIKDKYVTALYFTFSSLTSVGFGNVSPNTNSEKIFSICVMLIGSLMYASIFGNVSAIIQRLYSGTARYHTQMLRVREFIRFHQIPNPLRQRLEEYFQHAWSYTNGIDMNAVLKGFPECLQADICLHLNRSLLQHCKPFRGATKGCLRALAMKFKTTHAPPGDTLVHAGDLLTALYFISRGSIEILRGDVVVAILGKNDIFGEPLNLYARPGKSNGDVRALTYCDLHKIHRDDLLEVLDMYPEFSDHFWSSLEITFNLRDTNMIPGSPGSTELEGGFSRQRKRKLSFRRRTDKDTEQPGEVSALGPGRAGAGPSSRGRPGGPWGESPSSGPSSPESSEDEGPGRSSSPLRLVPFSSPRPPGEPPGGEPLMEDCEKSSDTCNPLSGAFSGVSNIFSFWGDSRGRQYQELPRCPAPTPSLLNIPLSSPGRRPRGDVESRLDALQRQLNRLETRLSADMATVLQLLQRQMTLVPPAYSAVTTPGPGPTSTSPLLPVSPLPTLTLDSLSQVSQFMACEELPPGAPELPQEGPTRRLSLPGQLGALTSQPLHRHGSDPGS

[9] = Inhibition of PDE5A1 (535-860 residues) (unknown origin) expressed in Escherichia coli BL21 using [3H]-cAMP substrate incubated for 15 mins by liquid scintillation counting method; set-up: species or system Homo sapiens
Cytochrome P450 2D6 = Cytochrome P450 2D6 (Homo sapiens, UniProt P10635); experiment: Inhibition of CYP2D6 in human liver microsomes in presence of NADPH; type: ADME
Chain of Cytochrome P450 2D6 (P10635 whole entry, the tested form may be a part): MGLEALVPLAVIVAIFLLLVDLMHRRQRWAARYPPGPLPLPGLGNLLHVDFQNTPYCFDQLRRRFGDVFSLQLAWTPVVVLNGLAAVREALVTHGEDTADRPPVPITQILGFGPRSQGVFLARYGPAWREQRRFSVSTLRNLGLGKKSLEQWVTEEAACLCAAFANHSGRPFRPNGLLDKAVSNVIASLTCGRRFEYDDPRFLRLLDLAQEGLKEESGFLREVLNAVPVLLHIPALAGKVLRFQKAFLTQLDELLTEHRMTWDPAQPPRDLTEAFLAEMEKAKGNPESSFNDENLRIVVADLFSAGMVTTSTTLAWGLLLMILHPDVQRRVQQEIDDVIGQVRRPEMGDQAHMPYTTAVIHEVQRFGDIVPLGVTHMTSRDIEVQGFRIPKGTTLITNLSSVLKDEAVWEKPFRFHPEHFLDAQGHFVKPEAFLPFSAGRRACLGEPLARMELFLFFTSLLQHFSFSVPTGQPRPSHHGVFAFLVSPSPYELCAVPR

[10] = molecular target: High affinity cGMP-specific 3',5'-cyclic phosphodiesterase 9A (Homo sapiens, UniProt O76083); experiment: Inhibition of PDE9A2 (181-506 residues) (unknown origin) expressed in Escherichia coli BL21 using [3H]-cAMP substrate incubated for 15 mins by liquid scintillation counting method
[11] = Tmax in Sprague-Dawley rat at 10 mg/kg, po measured upto 24 hrs by LC-MS/MS analysis; type: ADME, organism-based; conditions: in vivo
[12] = AUC (0 to infinity) in Sprague-Dawley rat at 2.5 mg/kg, iv measured upto 24 hrs by LC-MS/MS analysis; type: ADME, organism-based; set-up: route intravenous, dose 2.5 mg/kg, time <=24; conditions: in vivo
[13] = Cmax in Sprague-Dawley rat at 10 mg/kg, po measured upto 24 hrs by LC-MS/MS analysis; type: ADME, organism-based; set-up: route oral, dose 10 mg/kg, time <=24; conditions: in vivo
[14] = Effective permeability of compound by PAMPA-BBB assay; type: ADME; conditions: read-out: permeability
[15] = Lipophilicity, log P of the compound; type: physicochemical; conditions: octanol/water
Cytochrome P450 2C9 = Cytochrome P450 2C9 (Homo sapiens, UniProt P11712); experiment: Inhibition of CYP2C9 in human liver microsomes in presence of NADPH; type: ADME
Chain of Cytochrome P450 2C9 (P11712 whole entry, the tested form may be a part): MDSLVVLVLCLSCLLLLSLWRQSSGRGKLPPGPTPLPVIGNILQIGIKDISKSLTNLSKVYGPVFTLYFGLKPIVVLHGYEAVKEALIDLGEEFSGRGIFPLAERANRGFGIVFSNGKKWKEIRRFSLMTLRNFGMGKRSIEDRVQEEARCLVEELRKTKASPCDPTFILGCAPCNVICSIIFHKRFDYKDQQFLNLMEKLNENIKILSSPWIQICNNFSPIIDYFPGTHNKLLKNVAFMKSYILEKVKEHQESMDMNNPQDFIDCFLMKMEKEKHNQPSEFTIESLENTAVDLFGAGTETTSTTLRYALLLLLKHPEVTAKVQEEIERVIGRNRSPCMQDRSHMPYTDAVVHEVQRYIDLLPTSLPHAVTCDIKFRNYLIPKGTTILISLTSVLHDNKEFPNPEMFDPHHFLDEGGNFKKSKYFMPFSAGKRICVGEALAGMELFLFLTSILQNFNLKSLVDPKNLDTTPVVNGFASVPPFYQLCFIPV

[16] = molecular target: cGMP-inhibited 3',5'-cyclic phosphodiesterase 3A (Homo sapiens, UniProt Q14432); experiment: Inhibition of PDE3A (679-1087 residues) (unknown origin) expressed in Escherichia coli BL21 using [3H]-cAMP substrate incubated for 15 mins by liquid scintillation counting method
[17] = Cmax in Sprague-Dawley rat at 2.5 mg/kg, iv measured upto 24 hrs by LC-MS/MS analysis; type: ADME, organism-based; set-up: route intravenous, dose 2.5 mg/kg, time <=24; conditions: in vivo
[18] = AUC (0 to t) in Sprague-Dawley rat at 10 mg/kg, po measured upto 24 hrs by LC-MS/MS analysis; type: ADME, organism-based; set-up: route oral, dose 10 mg/kg, time <=24; conditions: in vivo
Mus musculus [19] = experiment: Anti-VaD activity against UCCAO-induced spatial memory deficient C57BL/6J mouse model assessed as improvement in spatial learning and memory by measuring reduction in escape latency at 3 mg/kg, po administered for 21 days by Morris water maze test; type: functional, organism-based; conditions: time 21.0 day
Mus musculus [20] = experiment: Anti-VaD activity against UCCAO-induced spatial memory deficient C57BL/6J mouse model assessed as improvement in spatial learning and memory by measuring increased the residence time in the platform area at 3 mg/kg, po administered for 21 days by Morris water maze test; type: functional, organism-based; conditions: time 21.0 day
[21] = AUC (0 to infinity) in Sprague-Dawley rat at 10 mg/kg, po measured upto 24 hrs by LC-MS/MS analysis; type: ADME, organism-based; set-up: route oral, dose 10 mg/kg, time <=24; conditions: in vivo
[22] = MRT (0 to t) in Sprague-Dawley rat at 10 mg/kg, po measured upto 24 hrs by LC-MS/MS analysis; type: ADME, organism-based; conditions: in vivo
[23] = Protein binding in human plasma; type: ADME, cell-free; conditions: read-out: PPB (converted)
Mus musculus [24] = experiment: Anti-VaD activity against UCCAO-induced spatial memory deficient C57BL/6J mouse model assessed as improvement in spatial learning and memory by measuring decrease in error rate at 3 mg/kg, po administered for 21 days by passive avoidance test; type: functional, organism-based; conditions: time 21.0 day
[25] = molecular target: High affinity 3',5'-cyclic-AMP phosphodiesterase 7A (Homo sapiens, UniProt Q13946); experiment: Inhibition of PDE7A1 (130-482 residues) (unknown origin) expressed in Escherichia coli BL21 using [3H]-cAMP substrate incubated for 15 mins by liquid scintillation counting method
Chain of High affinity 3',5'-cyclic-AMP phosphodiesterase 7A (Q13946 whole entry, the tested form may be a part): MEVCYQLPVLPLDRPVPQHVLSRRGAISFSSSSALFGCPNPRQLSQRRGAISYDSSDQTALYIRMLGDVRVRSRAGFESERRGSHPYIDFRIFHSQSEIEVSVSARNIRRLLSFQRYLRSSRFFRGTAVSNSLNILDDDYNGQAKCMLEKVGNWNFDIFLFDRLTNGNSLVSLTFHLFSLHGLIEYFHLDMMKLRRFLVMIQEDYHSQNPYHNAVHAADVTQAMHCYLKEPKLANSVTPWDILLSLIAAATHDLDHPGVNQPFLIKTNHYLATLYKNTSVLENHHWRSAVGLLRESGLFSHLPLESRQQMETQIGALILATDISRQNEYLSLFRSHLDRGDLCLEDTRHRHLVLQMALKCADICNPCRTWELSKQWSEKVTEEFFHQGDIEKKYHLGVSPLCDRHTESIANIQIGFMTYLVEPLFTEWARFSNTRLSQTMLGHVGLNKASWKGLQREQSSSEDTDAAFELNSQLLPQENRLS

Cytochrome P450 2C19 = Cytochrome P450 2C19 (Homo sapiens, UniProt P33261); experiment: Inhibition of CYP2C19 in human liver microsomes in presence of NADPH; type: ADME
[26] = molecular target: Dual 3',5'-cyclic-AMP and -GMP phosphodiesterase 11A (Homo sapiens, UniProt Q9HCR9); experiment: Inhibition of PDE11A (588-911 residues) (unknown origin) expressed in Escherichia coli BL21 using [3H]-cAMP substrate incubated for 15 mins by liquid scintillation counting method
Chain of Dual 3',5'-cyclic-AMP and -GMP phosphodiesterase 11A (Q9HCR9 whole entry, the tested form may be a part): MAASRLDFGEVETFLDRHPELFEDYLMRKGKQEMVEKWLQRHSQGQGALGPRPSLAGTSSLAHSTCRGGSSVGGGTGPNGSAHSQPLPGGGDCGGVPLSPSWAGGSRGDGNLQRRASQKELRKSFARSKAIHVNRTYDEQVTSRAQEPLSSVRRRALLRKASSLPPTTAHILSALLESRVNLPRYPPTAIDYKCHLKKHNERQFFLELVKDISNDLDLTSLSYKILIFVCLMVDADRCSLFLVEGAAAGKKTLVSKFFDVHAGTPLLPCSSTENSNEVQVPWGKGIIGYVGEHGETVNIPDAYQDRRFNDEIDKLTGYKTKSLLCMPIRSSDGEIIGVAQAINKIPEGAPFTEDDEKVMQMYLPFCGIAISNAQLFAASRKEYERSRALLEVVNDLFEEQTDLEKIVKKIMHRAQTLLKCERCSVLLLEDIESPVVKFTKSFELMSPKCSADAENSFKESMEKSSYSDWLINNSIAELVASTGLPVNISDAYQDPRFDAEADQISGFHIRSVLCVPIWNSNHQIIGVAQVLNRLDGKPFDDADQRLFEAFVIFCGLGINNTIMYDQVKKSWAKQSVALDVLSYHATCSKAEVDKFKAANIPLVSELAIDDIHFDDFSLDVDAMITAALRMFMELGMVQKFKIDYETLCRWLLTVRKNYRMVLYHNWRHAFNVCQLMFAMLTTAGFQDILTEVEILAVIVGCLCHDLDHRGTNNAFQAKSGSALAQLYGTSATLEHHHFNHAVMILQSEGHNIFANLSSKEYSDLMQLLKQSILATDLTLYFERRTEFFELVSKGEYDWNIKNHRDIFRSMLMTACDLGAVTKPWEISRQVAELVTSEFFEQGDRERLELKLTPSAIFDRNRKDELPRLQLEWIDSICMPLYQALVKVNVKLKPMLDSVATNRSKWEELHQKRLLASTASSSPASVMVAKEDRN

Cytochrome P450 3A4 = Cytochrome P450 3A4 (Homo sapiens, UniProt P08684); experiment: Inhibition of CYP3A4 in human liver microsomes using midazolam as substrate in presence of NADPH; type: ADME
Chain of Cytochrome P450 3A4 (P08684 whole entry): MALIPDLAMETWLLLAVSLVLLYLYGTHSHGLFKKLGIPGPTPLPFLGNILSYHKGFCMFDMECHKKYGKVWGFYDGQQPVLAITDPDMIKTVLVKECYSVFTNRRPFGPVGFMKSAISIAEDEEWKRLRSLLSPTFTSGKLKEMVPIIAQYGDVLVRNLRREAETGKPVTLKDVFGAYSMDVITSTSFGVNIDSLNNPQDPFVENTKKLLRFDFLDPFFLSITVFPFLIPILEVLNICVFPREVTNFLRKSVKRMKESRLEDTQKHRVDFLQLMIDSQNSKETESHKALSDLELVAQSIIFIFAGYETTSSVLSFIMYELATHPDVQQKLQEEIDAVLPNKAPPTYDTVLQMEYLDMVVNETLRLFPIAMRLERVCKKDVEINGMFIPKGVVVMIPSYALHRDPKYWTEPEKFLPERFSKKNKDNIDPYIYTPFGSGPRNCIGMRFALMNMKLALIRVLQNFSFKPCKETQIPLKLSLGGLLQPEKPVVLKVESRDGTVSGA

[27] = Aqueous solubility of compound at pH 7.3 by HPLC analysis; type: physicochemical; conditions: aqueous medium
[28] = molecular target: Dual specificity calcium/calmodulin-dependent 3',5'-cyclic nucleotide phosphodiesterase 1B (Homo sapiens, UniProt Q01064); experiment: Inhibition of PDE1B (146-506 residues) (unknown origin) expressed in Escherichia coli BL21 using [3H]-cAMP substrate incubated for 15 mins by liquid scintillation counting method
[29] = Dissociation constant, pKa of the compound; type: physicochemical
[30] = Half life in Sprague-Dawley rat at 2.5 mg/kg, iv measured upto 24 hrs by LC-MS/MS analysis; type: ADME, organism-based; conditions: in vivo
[31] = Tmax in Sprague-Dawley rat at 2.5 mg/kg, iv measured upto 24 hrs by LC-MS/MS analysis; type: ADME, organism-based; conditions: in vivo
Mus musculus [32] = experiment: Anti-VaD activity against UCCAO-induced spatial memory deficient C57BL/6J mouse model assessed as improvement in spatial learning and memory by measuring increased the frequency of platform site crossing at 3 mg/kg, po administered for 21 days by Morris water maze test; type: functional, organism-based; conditions: time 21.0 day
[33] = Oral bioavailability in Sprague-Dawley rat at 10 mg/kg measured upto 24 hrs by LC-MS/MS analysis; type: ADME, organism-based; conditions: in vivo
[34] = Half life in Sprague-Dawley rat at 10 mg/kg, po measured upto 24 hrs by LC-MS/MS analysis; type: ADME, organism-based; conditions: in vivo
[35] = AUC (0 to t) in Sprague-Dawley rat at 2.5 mg/kg, iv measured upto 24 hrs by LC-MS/MS analysis; type: ADME, organism-based; set-up: route intravenous, dose 2.5 mg/kg, time <=24; conditions: in vivo
[36] = molecular target: T2, High affinity cAMP-specific and IBMX-insensitive 3',5'-cyclic phosphodiesterase 8A (Homo sapiens, UniProt O60658); experiment: Inhibition of PDE8A1 (480 to 820 residues) (unknown origin) expressed in Escherichia coli BL21 using [3H]-cAMP substrate at 1 uM incubated for 15 mins by liquid scintillation counting method relative to control
T2 sequence (O60658 whole entry, the tested form may be a part): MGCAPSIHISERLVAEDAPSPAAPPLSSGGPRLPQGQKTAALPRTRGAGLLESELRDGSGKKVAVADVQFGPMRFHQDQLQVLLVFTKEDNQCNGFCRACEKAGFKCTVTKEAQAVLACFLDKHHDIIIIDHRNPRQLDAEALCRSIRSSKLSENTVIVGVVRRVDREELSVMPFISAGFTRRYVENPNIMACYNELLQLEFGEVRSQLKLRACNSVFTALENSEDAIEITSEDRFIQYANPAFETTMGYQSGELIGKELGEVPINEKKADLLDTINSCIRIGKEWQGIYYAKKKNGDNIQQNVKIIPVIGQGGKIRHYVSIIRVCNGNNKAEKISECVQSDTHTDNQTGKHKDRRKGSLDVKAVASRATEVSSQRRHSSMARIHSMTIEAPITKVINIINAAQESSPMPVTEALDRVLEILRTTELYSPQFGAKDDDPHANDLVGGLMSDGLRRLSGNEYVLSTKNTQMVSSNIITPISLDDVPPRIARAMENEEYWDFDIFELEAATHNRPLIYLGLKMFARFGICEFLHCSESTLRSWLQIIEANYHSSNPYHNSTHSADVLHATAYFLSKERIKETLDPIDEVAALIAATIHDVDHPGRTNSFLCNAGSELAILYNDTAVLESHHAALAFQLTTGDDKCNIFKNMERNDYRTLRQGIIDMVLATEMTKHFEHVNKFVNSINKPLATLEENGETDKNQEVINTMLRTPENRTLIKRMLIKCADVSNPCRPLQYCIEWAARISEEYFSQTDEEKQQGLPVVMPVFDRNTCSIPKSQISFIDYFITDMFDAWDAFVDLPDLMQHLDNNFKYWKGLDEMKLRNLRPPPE

[37] = molecular target: T2, High affinity cAMP-specific and IBMX-insensitive 3',5'-cyclic phosphodiesterase 8A; experiment: Inhibition of PDE8A1 (480 to 820 residues) (unknown origin) expressed in Escherichia coli BL21 using [3H]-cAMP substrate incubated for 15 mins by liquid scintillation counting method

COc1cc2c(cc1OC)C(=O)C(CC1CCN(Cc3ccccc3)CC1)C2 (stereo not drawn)
Activity (Mus musculus [1]): Active | Activity (Mus musculus [2]): Active | Activity (Mus musculus [3]): Active | Activity (Mus musculus [4]): Active | Activity (Mus musculus [5]): Active

C[C@@H](c1cc(OCC(F)F)ccn1)n1cnc2c(N)nc(Cl)nc21
Activity (Mus musculus [6]): Active | IC50 (Cytochrome P450 1A2): > 25 µM | MRT last at 24 h [7]: 4.48 h | IC50 [8]: 18 µM | IC50 [9]: > 10 µM | IC50 (Cytochrome P450 2D6): > 25 µM | IC50 [10]: > 10 µM | Tmax [11]: 4 h | AUC(0-inf) [12]: 9420 ng·h/mL | Cmax [13]: 1940 ng/mL | Papp [14]: 6 ×10⁻⁶ cm/s | logP [15]: 3.84 | IC50 (Cytochrome P450 2C9): > 25 µM | IC50 [16]: > 10 µM | Cmax [17]: 2190 ng/mL | AUC(0-t) at 24 h [18]: 17500 ng·h/mL | Activity (Mus musculus [19]): Active | Activity (Mus musculus [20]): Active | AUC(0-inf) [21]: 17600 ng·h/mL | MRT last at 24 h [22]: 7.2 h | fraction unbound [23]: 0.22 | Activity (Mus musculus [24]): Active | IC50 [25]: > 10 µM | IC50 (Cytochrome P450 2C19): > 25 µM | IC50 [26]: > 10 µM | IC50 (Cytochrome P450 3A4): > 25 µM | solubility [27]: 108 µg/mL (≈ 304 µM) | IC50 [28]: > 10 µM | pKa [29]: 3.69 | half-life [30]: 2.36 h | Tmax [31]: 8.4 min | Activity (Mus musculus [32]): Active | bioavailability [33]: 47% | half-life [34]: 2.82 h | AUC(0-t) at 24 h [35]: 9410 ng·h/mL

Cc1cccc(Cn2cnc3c(N)nc(Cl)nc32)n1
inhibition [36]: 14%

Nc1nc(Cl)nc2c1ncn2Cc1cc(OCC(F)F)ccn1
IC50 [37]: 0.36 µM

Nc1nc(Cl)nc2c1ncn2Cc1ccccn1
inhibition [36]: 24%
